According to ChEMBL document CHEMBL4725390, “Asymmetrically Substituted Quadruplex-Binding Naphthalene Diimide Showing Potent Activity in Pancreatic Cancer Models” (ACS Med Chem Lett, 2020):
The source made the active and inactive calls. No cut-off for these calls is given here.

Key:
CAPAN-1 = test: Antiproliferative activity against human Capan1 cells assessed as growth inhibition after 96 hrs by SRB assay; format: functional
Mus musculus [1] = test: Down regulation of MAPK11 expression in mouse xenografted with human MIAPaCa2 cells at 10 mg/kg, iv administered twice per week for 28 days and measured on day 28 by Western blot analysis; format: functional, organism-based; settings: time 28.0 day
Mus musculus [2] = test: Down regulation of MAPK11 expression in mouse xenografted with human MIAPaCa2 cells at 15 mg/kg, iv administered twice per week for 28 days and measured on day 28 by Western blot analysis; format: functional, organism-based; settings: time 28.0 day
[3] = AUC in mouse xenografted with human MIAPaCa2 cells at 9.1 mg/kg, iv administered as single dose; format: ADME, organism-based; parameters: dose 9.1 mg/kg; settings: in vivo
Quadruplex DNA = test: Binding affinity to G4 quadruplex DNA in human PANC1 cells assessed as increase in number of BG4 foci at 400 nM after 24 hrs by immunofluorescence based confocal microscopic analysis; format: cell-based; settings: PANC-1
[4] = Cmax in mouse xenografted with human MIAPaCa2 cells at 9.1 mg/kg, iv administered as single dose; format: ADME, organism-based; parameters: route intravenous, dose 9.1 mg/kg; settings: in vivo
[5] = Apparent volume of distribution in mouse xenografted with human MIAPaCa2 cells at 14 mg/kg, iv administered as single dose; format: ADME, organism-based; settings: in vivo, read-out: Vz
[6] = AUC (infinity) in mouse xenografted with human MIAPaCa2 cells at 9.1 mg/kg, iv administered as single dose; format: ADME, organism-based; parameters: route intravenous, time infinity, dose 9.1 mg/kg; settings: in vivo
MIA PaCa-2 [7] = test: Antitumor activity against human MIAPaCa2 cells xenografted in mouse assessed as change in tumor volume at 10 mg/kg, iv administered twice per week for 28 days and measured at day 53 by Caliper method relative to control; format: functional; settings: time 28 day
[8] = Half life in mouse xenografted with human MIAPaCa2 cells at 14 mg/kg, iv administered as single dose; format: ADME, organism-based; settings: in vivo
MIA PaCa-2 [9] = test: Antitumor activity against human MIAPaCa2 cells xenografted in mouse assessed as mean tumor volume at 10 mg/kg, iv administered twice per week for 28 days and measured at day 53 by Caliper method (reference value: 1.60 +/- 0.44 cm3); format: functional; settings: time 28 day
Mus musculus [10] = test: Effect on hTERT expression in mouse xenografted with human MIAPaCa2 cells at 15 mg/kg, iv administered twice per week for 28 days and measured on day 28 by Western blot analysis; format: functional, organism-based; settings: time 28.0 day
[11] = Half life in mouse xenografted with human MIAPaCa2 cells at 9.1 mg/kg, iv administered as single dose; format: ADME, organism-based; settings: in vivo
MIA PaCa-2 [12] = test: Antitumor activity against human MIAPaCa2 cells xenografted in mouse assessed as change in tumor volume at 15 mg/kg, iv administered twice per week for 28 days and measured at day 53 by Caliper method relative to control; format: functional; settings: time 28 day
[13] = AUC in mouse xenografted with human MIAPaCa2 cells at 14 mg/kg, iv administered as single dose; format: ADME, organism-based; parameters: dose 14 mg/kg; settings: in vivo
[14] = Clearance in mouse xenografted with human MIAPaCa2 cells at 9.1 mg/kg, iv administered as single dose; format: ADME, organism-based; settings: in vivo
[15] = Clearance in mouse xenografted with human MIAPaCa2 cells at 14 mg/kg, iv administered as single dose; format: ADME, organism-based; settings: in vivo
MIA PaCa-2 [16] = test: Antitumor activity against human MIAPaCa2 cells xenografted in mouse assessed as change in tumor volume at 15 mg/kg, iv administered twice per week for 28 days and measured at day 28 by Caliper method relative to control; format: functional; settings: time 28 day
[17] = Apparent volume of distribution in mouse xenografted with human MIAPaCa2 cells at 9.1 mg/kg, iv administered as single dose; format: ADME, organism-based; settings: in vivo, read-out: Vz
BXPC-3 = test: Antiproliferative activity against human BxPC3 cells assessed as growth inhibition after 96 hrs by SRB assay; format: functional
Mus musculus [18] = test: Effect on hTERT expression in mouse xenografted with human MIAPaCa2 cells at 10 mg/kg, iv administered twice per week for 28 days and measured on day 28 by Western blot analysis; format: functional, organism-based; settings: time 28.0 day
[19] = Volume of distribution at steady state in mouse xenografted with human MIAPaCa2 cells at 9.1 mg/kg, iv administered as single dose; format: ADME, organism-based; settings: in vivo, read-out: Vdss
MIA PaCa-2 [20] = test: Antiproliferative activity against human MIAPaCa2 cells assessed as growth inhibition after 96 hrs by SRB assay; format: functional
[21] = Volume of distribution at steady state in mouse xenografted with human MIAPaCa2 cells at 14 mg/kg, iv administered as single dose; format: ADME, organism-based; settings: in vivo, read-out: Vdss
MIA PaCa-2 [22] = test: Antitumor activity against human MIAPaCa2 cells xenografted in mouse assessed as change in tumor volume at 1 mg/kg, iv administered twice per week for 28 days and measured at day 53 by Caliper method relative to control; format: functional; settings: time 28 day
[23] = Cmax in mouse xenografted with human MIAPaCa2 cells at 14 mg/kg, iv administered as single dose; format: ADME, organism-based; parameters: route intravenous, dose 14 mg/kg; settings: in vivo
MIA PaCa-2 [24] = test: Antitumor activity against human MIAPaCa2 cells xenografted in mouse assessed as mean tumor volume at 10 mg/kg, iv administered twice per week for 28 days and measured at day 28 by Caliper method (reference value: 0.45 +/- 0.18 cm3); format: functional; settings: time 28 day
[25] = AUC (infinity) in mouse xenografted with human MIAPaCa2 cells at 14 mg/kg, iv administered as single dose; format: ADME, organism-based; parameters: route intravenous, time infinity, dose 14 mg/kg; settings: in vivo
MIA PaCa-2 [26] = test: Antitumor activity against human MIAPaCa2 cells xenografted in mouse assessed as change in tumor volume at 10 mg/kg, iv administered twice per week for 28 days and measured at day 28 by Caliper method relative to control; format: functional; settings: time 28 day
PANC-1 = test: Antiproliferative activity against human PANC1 cells assessed as growth inhibition after 96 hrs by SRB assay; format: functional
MIA PaCa-2 [27] = test: Antiproliferative activity against human MIAPaCa2 cells assessed as growth inhibition after 96 hrs by MTS assay relative to SOP1812; format: functional

**Q.** For O=C1c2ccc3c4c(c(NCCN5CCCC5)cc(c24)C(=O)N1CCCN1CCOCC1)C(=O)N(CCCN1CCOCC1)C3=O, which GI50 (CAPAN-1) is on record?
**A.** Its GI50 is 26.5 nM.

**Q.** What about the inhibition (Mus musculus [1]) of the same molecule?
**A.** The inhibition was “inactive”.

**Q.** And the inhibition (Mus musculus [2])?
**A.** Its inhibition is “Active”.

**Q.** What about the AUC [3] of the same molecule?
**A.** Its AUC is 11100 ng·h/mL.

**Q.** What about the Activity (Quadruplex DNA) of the same molecule?
**A.** Its Activity is “Active”.

**Q.** And the Cmax [4]?
**A.** Its Cmax is 4520 ng/mL.

**Q.** And the Vd [5]?
**A.** The Vd was 11.8 L/kg.

**Q.** And the AUC(0-inf) [6]?
**A.** Its AUC(0-inf) is 14500 ng·h/mL.

**Q.** What about the Activity (MIA PaCa-2 [7]) of the same molecule?
**A.** Its Activity is -60.6%.

**Q.** And the half-life [8]?
**A.** The half-life was 960 min.

**Q.** What about the Activity (MIA PaCa-2 [9]) of the same molecule?
**A.** Its Activity is 0.63 cm3.

**Q.** And the Activity (Mus musculus [10])?
**A.** Its Activity is “inactive”.

**Q.** And the half-life [11]?
**A.** The half-life was 1980 min.

**Q.** And the Activity (MIA PaCa-2 [12])?
**A.** Its Activity is -78.1%.

**Q.** What about the AUC [13] of the same molecule?
**A.** Its AUC is 30600 ng·h/mL.

**Q.** What about the clearance [14] of the same molecule?
**A.** The clearance was 10.9 mL/min/kg.

**Q.** And the clearance [15]?
**A.** The clearance was 8.1 mL/min/kg.

**Q.** What about the Activity (MIA PaCa-2 [16]) of the same molecule?
**A.** Its Activity is -73.3%.

**Q.** What about the Vd [17] of the same molecule?
**A.** The Vd was 27.8 L/kg.

**Q.** What about the GI50 (BXPC-3) of the same molecule?
**A.** The GI50 was 15.5 nM.

**Q.** And the Activity (Mus musculus [18])?
**A.** Its Activity is “inactive”.

**Q.** What about the Vd [19] of the same molecule?
**A.** The Vd was 5.2 L/kg.

**Q.** And the GI50 (MIA PaCa-2 [20])?
**A.** Its GI50 is 9 nM.

**Q.** What about the Vd [21] of the same molecule?
**A.** The Vd was 2.2 L/kg.

**Q.** What about the Activity (MIA PaCa-2 [22]) of the same molecule?
**A.** The Activity was -90.6%.

**Q.** What about the Cmax [23] of the same molecule?
**A.** Its Cmax is 22100 ng/mL.

**Q.** What about the Activity (MIA PaCa-2 [24]) of the same molecule?
**A.** The Activity was 0.16 cm3.

**Q.** And the AUC(0-inf) [25]?
**A.** The AUC(0-inf) was 34400 ng·h/mL.

**Q.** And the Activity (MIA PaCa-2 [26])?
**A.** Its Activity is -64.4%.

**Q.** And the GI50 (PANC-1)?
**A.** The GI50 was 15.6 nM.

**Q.** For O=C1c2cc(-c3ccccc3CN3CCCC3)c3c4c(cc(NCCN5CCCC5)c(c24)C(=O)N1CCCN1CCOCC1)C(=O)N(CCCN1CCOCC1)C3=O, which “growth inhibition (GI)” value (MIA PaCa-2 [27]) is on record?
**A.** The value was 2.7%.

**Q.** For O=C1c2cc(-c3ccc(CN4CCOCC4)cc3)c3c4c(cc(NCCN5CCCC5)c(c24)C(=O)N1CCCN1CCOCC1)C(=O)N(CCCN1CCOCC1)C3=O, which “growth inhibition (GI)” value (MIA PaCa-2 [27]) is on record?
**A.** Its value is 19.2%.

**Q.** For O=C1c2cc(-c3cccc(CN4CCCC4)c3)c3c4c(cc(NCCN5CCCC5)c(c24)C(=O)N1CCCN1CCOCC1)C(=O)N(CCCN1CCOCC1)C3=O, which “growth inhibition (GI)” value (MIA PaCa-2 [27]) is on record?
**A.** The value was 19.7%.

**Q.** Which “growth inhibition (GI)” value (MIA PaCa-2 [27]) does the source give for O=C1c2cc(-c3ccc(CN4CCCCCC4)cc3)c3c4c(cc(NCCN5CCCC5)c(c24)C(=O)N1CCCN1CCOCC1)C(=O)N(CCCN1CCOCC1)C3=O here?
**A.** The value was 30.7%.

**Q.** Which “growth inhibition (GI)” value (MIA PaCa-2 [27]) does the source give for O=C1c2cc(-c3ccc(CNC4CCCC4)cc3)c3c4c(cc(NCCN5CCCC5)c(c24)C(=O)N1CCCN1CCOCC1)C(=O)N(CCCN1CCOCC1)C3=O here?
**A.** Its value is 54.9%.

**Q.** Which “growth inhibition (GI)” value (MIA PaCa-2 [27]) does the source give for O=C1c2cc(-c3ccc(CN4CCCCC4)cc3)c3c4c(cc(NCCN5CCCC5)c(c24)C(=O)N1CCCN1CCOCC1)C(=O)N(CCCN1CCOCC1)C3=O here?
**A.** The value was 32%.

**Q.** For O=C(c1ccc(-c2cc3c4c(c(NCCN5CCCC5)cc5c4c2C(=O)N(CCCN2CCOCC2)C5=O)C(=O)N(CCCN2CCOCC2)C3=O)cc1)N1CCCC1, which “growth inhibition (GI)” value (MIA PaCa-2 [27]) is on record?
**A.** Its value is 10.9%.

**Q.** Which “growth inhibition (GI)” value (MIA PaCa-2 [27]) does the source give for CCN(CC)Cc1ccc(-c2cc3c4c(c(NCCN5CCCC5)cc5c4c2C(=O)N(CCCN2CCOCC2)C5=O)C(=O)N(CCCN2CCOCC2)C3=O)cc1 here?
**A.** Its value is 31.1%.

**Q.** For O=C1c2cc(-c3ccc(N4CCCC4)cc3)c3c4c(cc(NCCN5CCCC5)c(c24)C(=O)N1CCCN1CCOCC1)C(=O)N(CCCN1CCOCC1)C3=O, which “growth inhibition (GI)” value (MIA PaCa-2 [27]) is on record?
**A.** Its value is 1.9%.

**Q.** Which “growth inhibition (GI)” value (MIA PaCa-2 [27]) does the source give for CN1CCN(Cc2ccc(-c3cc4c5c(c(NCCN6CCCC6)cc6c5c3C(=O)N(CCCN3CCOCC3)C6=O)C(=O)N(CCCN3CCOCC3)C4=O)cc2)CC1 here?
**A.** Its value is 20.2%.

**Q.** For Nc1ccn([C@@H]2O[C@H](CO)[C@@H](O)C2(F)F)c(=O)n1 [GEMCITABINE], which inhibition (Mus musculus [2]) is on record?
**A.** Its inhibition is “inactive”.

**Q.** What about the Activity (Mus musculus [10]) of the same molecule?
**A.** Its Activity is “inactive”.

**Q.** And the Activity (MIA PaCa-2 [12])?
**A.** Its Activity is -75.6%.

**Q.** And the Activity (MIA PaCa-2 [16])?
**A.** Its Activity is -71.1%.
